Our source for the EC50 values is US9499550B2 (BRISTOL-MYERS SQUIBB COMPANY, priority 2012, dated 2016).

The test system of experiment [1] is HCV genotype 1b (Con1) replicon in HUH-7 cells. Description: HCV replicon luciferase reporter assay, genotype 1b. As to conditions: Hepatitis C virus, Huh-7, 72 h, HCV genotype 1b replicon luciferase, 3 days incubation, read-out: LE_1b (EC50, range). The experiment is classed as cell-based. The gist of the method:
(§1)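 Replicon inhibition for both genotypes was measured as Renilla luciferase signal (EnduRen, 7.5 μM final, 2 h) after 3-day, 37° C exposure of replicon-bearing HUH-7 cells in 4% FCS DMEM, 0.5% DMSO. The 1b construct carries S1179I; the 1a H77 construct carries P1496L and S2204I. Twenty-point, 3-fold dilutions were fitted four-parametrically for EC50, and CC50 was taken from multiplexed Cell Titer-Blue.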

In experiment [2] the test system is HCV genotype 1a (H77 strain) replicon in HUH-7 cells. Nature of the experiment: HCV replicon luciferase reporter assay, genotype 1a. As to conditions: Hepatitis C virus, Huh-7, 72 h, HCV genotype 1a replicon luciferase, 3 days incubation, read-out: LE_1a (EC50, range). Format: cell-based. Summed up:
as §1

Take `CCOc1nnc(O[C@@H]2C[C@H]3C(=O)N[C@]4(C(=O)NS(=O)(=O)C5(C)CC5)C[C@H]4/C=C\CC[C@@H](C)C[C@@H](C)[C@H](NC(=O)OC(C)(C)C)C(=O)N3C2)c2ccccc12` [Compound 5029, tert-butyl ((2R,6S,7R,9R,13aS,14aR,16aS,Z)-2-((4-ethoxyphthalazin-1-yl)oxy)-7,9-dimethyl-14a-(((1-methylcyclopropyl)sulfonyl)carbamoyl)-5,16-dioxo-1,2,3,5,6,7,8,9,10,11,13a,14,14a,15,16,16a-hexadecahydrocyclopropa[e]pyrrolo[1,2-a][1,4]diazacyclopentadecin-6-yl)carbamate]: the EC50 in experiment [1] and in experiment [2] was below 5.46 nM in each case.

Take `CCOc1nnc(O[C@@H]2C[C@H]3C(=O)N[C@]4(C(=O)NS(=O)(=O)C5(C)CC5)C[C@H]4/C=C\CC[C@H](C)C[C@@H](C)[C@H](NC(=O)OC(C)(C)C(F)(F)F)C(=O)N3C2)c2ccccc12` [Compound 5030, 1,1,1-trifluoro-2-methylpropan-2-yl((2R,6S,7R,9S,13aS,14aR,16aS,Z)-2-((4-ethoxyphthalazin-1-yl)oxy)-7,9-dimethyl-14a-(((1-methylcyclopropyl)sulfonyl)carbamoyl)-5,16-dioxo-1,2,3,5,6,7,8,9,10,11,13a,14,14a,15,16,16a-hexadecahydrocyclopropa[e]pyrrolo[1,2-a][1,4]diazacyclopentadecin-6-yl)carbamate]: the EC50 in experiment [1] and in experiment [2] was 4.82 to 103 nM each time.

Take `CCOc1nnc(O[C@@H]2C[C@H]3C(=O)N[C@]4(C(=O)NS(=O)(=O)C5(C)CC5)C[C@H]4/C=C\CC[C@@H](C)C[C@@H](C)[C@H](NC(=O)OC(C)(C)C(F)(F)F)C(=O)N3C2)c2ccccc12` [Compound 5031, 1,1,1-trifluoro-2-methylpropan-2-yl((2R,6S,7R,9R,13aS,14aR,16aS,Z)-2-((4-ethoxyphthalazin-1-yl)oxy)-7,9-dimethyl-14a-(((1-methylcyclopropyl)sulfonyl)carbamoyl)-5,16-dioxo-1,2,3,5,6,7,8,9,10,11,13a,14,14a,15,16,16a-hexadecahydrocyclopropa[e]pyrrolo[1,2-a][1,4]diazacyclopentadecin-6-yl)carbamate]: the EC50 in experiment [1] and in experiment [2] was below 5.46 nM in each case.

On to `[2H]C([2H])([2H])C(OC(=O)N[C@@H]1C(=O)N2C[C@H](Oc3nnc(OCC)c4ccccc34)C[C@H]2C(=O)N[C@]2(C(=O)NS(=O)(=O)C3(C)CC3)C[C@H]2/C=C\CC[C@H](C)C[C@H]1C)(C([2H])([2H])[2H])C(F)(F)F` [Compound 5032], for which the EC50 in experiment [1] and in experiment [2] was 4.82 to 103 nM each time.

For the compound `[2H]C([2H])([2H])C(OC(=O)N[C@@H]1C(=O)N2C[C@H](Oc3nnc(OCC)c4ccccc34)C[C@H]2C(=O)N[C@]2(C(=O)NS(=O)(=O)C3(C)CC3)C[C@H]2/C=C\CC[C@@H](C)C[C@H]1C)(C([2H])([2H])[2H])C(F)(F)F` [Compound 5033], the EC50 in experiment [1] and in experiment [2] was below 5.46 nM in each case.

Turning to `CCOc1nnc(O[C@@H]2C[C@H]3C(=O)N[C@]4(C(=O)NS(=O)(=O)C5CC5)C[C@H]4/C=C\CC[C@H](C)C[C@@H](C)[C@H](NC(=O)OC(C)(C)C)C(=O)N3C2)c2ccccc12` [Compound 5034, tert-butyl ((2R,6S,7R,9S,13aS,14aR,16aS,Z)-14a-((cyclopropylsulfonyl)carbamoyl)-2-((4-ethoxyphthalazin-1-yl)oxy)-7,9-dimethyl-5,16-dioxo-1,2,3,5,6,7,8,9,10,11,13a,14,14a,15,16,16a-hexadecahydrocyclopropa[e]pyrrolo[1,2-a][1,4]diazacyclopentadecin-6-yl)carbamate], the EC50 in experiment [1] and in experiment [2] was 4.82 to 103 nM each time.

Consider `CCOc1nnc(O[C@@H]2C[C@H]3C(=O)N[C@]4(C(=O)NS(=O)(=O)C5CC5)C[C@H]4/C=C\CC[C@@H](C)C[C@@H](C)[C@H](NC(=O)OC(C)(C)C)C(=O)N3C2)c2ccccc12` [Compound 5035, tert-butyl ((2R,6S,7R,9R,13aS,14aR,16aS,Z)-14a-((cyclopropylsulfonyl)carbamoyl)-2-((4-ethoxyphthalazin-1-yl)oxy)-7,9-dimethyl-5,16-dioxo-1,2,3,5,6,7,8,9,10,11,13a,14,14a,15,16,16a-hexadecahydrocyclopropa[e]pyrrolo[1,2-a][1,4]diazacyclopentadecin-6-yl)carbamate], for which the EC50 in experiment [1] and in experiment [2] was below 5.46 nM each time.

Take `CCOc1nnc(O[C@@H]2C[C@H]3C(=O)N[C@]4(C(=O)NS(=O)(=O)C5CC5)C[C@H]4/C=C\CC[C@H](C)C[C@@H](C)[C@H](NC(=O)OC(C)(C)C(F)(F)F)C(=O)N3C2)c2ccccc12` [Compound 5036, 1,1,1-trifluoro-2-methylpropan-2-yl((2R,6S,7R,9S,13aS,14aR,16aS,Z)-14a-((cyclopropylsulfonyl)carbamoyl)-2-((4-ethoxyphthalazin-1-yl)oxy)-7,9-dimethyl-5,16-dioxo-1,2,3,5,6,7,8,9,10,11,13a,14,14a,15,16,16a-hexadecahydrocyclopropa[e]pyrrolo[1,2-a][1,4]diazacyclopentadecin-6-yl)carbamate]: the EC50 in experiment [1] and in experiment [2] was 4.82 to 103 nM in each case.

Regarding `CCOc1nnc(O[C@@H]2C[C@H]3C(=O)N[C@]4(C(=O)NS(=O)(=O)C5CC5)C[C@H]4/C=C\CC[C@@H](C)C[C@@H](C)[C@H](NC(=O)OC(C)(C)C(F)(F)F)C(=O)N3C2)c2ccccc12` [Compound 5037, 1,1,1-trifluoro-2-methylpropan-2-yl((2R,6S,7R,9R,13aS,14aR,16aS,Z)-14a-((cyclopropylsulfonyl)carbamoyl)-2-((4-ethoxyphthalazin-1-yl)oxy)-7,9-dimethyl-5,16-dioxo-1,2,3,5,6,7,8,9,10,11,13a,14,14a,15,16,16a-hexadecahydrocyclopropa[e]pyrrolo[1,2-a][1,4]diazacyclopentadecin-6-yl)carbamate], the EC50 in experiment [1] and in experiment [2] was below 5.46 nM throughout.

As for `[2H]C([2H])([2H])C(OC(=O)N[C@@H]1C(=O)N2C[C@H](Oc3nnc(OCC)c4ccccc34)C[C@H]2C(=O)N[C@]2(C(=O)NS(=O)(=O)C3CC3)C[C@H]2/C=C\CC[C@H](C)C[C@H]1C)(C([2H])([2H])[2H])C(F)(F)F` [Compound 5038], the EC50 in experiment [1] and in experiment [2] was 4.82 to 103 nM each time.

For the compound `[2H]C([2H])([2H])C(OC(=O)N[C@@H]1C(=O)N2C[C@H](Oc3nnc(OCC)c4ccccc34)C[C@H]2C(=O)N[C@]2(C(=O)NS(=O)(=O)C3CC3)C[C@H]2/C=C\CC[C@@H](C)C[C@H]1C)(C([2H])([2H])[2H])C(F)(F)F` [Compound 5039], the EC50 in experiment [1] and in experiment [2] was below 5.46 nM throughout.

As for `CCOc1nnc(O[C@@H]2C[C@H]3C(=O)N[C@]4(C(=O)NS(=O)(=O)C5CC5)C[C@H]4/C=C\CC[C@H](C)C[C@@H](C)[C@H](NC(=O)NC(C)(C)C)C(=O)N3C2)c2ccccc12` [Compound 5040, (2R,6S,7R,9S,13aS,14aR,16aS,Z)-6-(3-(tert-butyl)ureido)-N-(cyclopropylsulfonyl)-2-((4-ethoxyphthalazin-1-yl)oxy)-7,9-dimethyl-5,16-dioxo-1,2,3,5,6,7,8,9,10,11,13a,14,14a,15,16,16a-hexadecahydrocyclopropa[e]pyrrolo[1,2-a][1,4]diazacyclopentadecine-14a-carboxamide], the EC50 in experiment [1] and in experiment [2] was above 87.4 nM each time.

For the compound `CCOc1nnc(O[C@@H]2C[C@H]3C(=O)N[C@]4(C(=O)NS(=O)(=O)C5CC5)C[C@H]4/C=C\CC[C@@H](C)C[C@@H](C)[C@H](NC(=O)NC(C)(C)C)C(=O)N3C2)c2ccccc12` [Compound 5041, (2R,6S,7R,9R,13aS,14aR,16aS,Z)-6-(3-(tert-butyl)ureido)-N-(cyclopropylsulfonyl)-2-((4-ethoxyphthalazin-1-yl)oxy)-7,9-dimethyl-5,16-dioxo-1,2,3,5,6,7,8,9,10,11,13a,14,14a,15,16,16a-hexadecahydrocyclopropa[e]pyrrolo[1,2-a][1,4]diazacyclopentadecine-14a-carboxamide], the EC50 in experiment [1] was 4.82 to 103 nM; in experiment [2] it was below 5.46 nM.

As to `CCOc1nnc(O[C@@H]2C[C@H]3C(=O)N[C@]4(C(=O)NS(=O)(=O)C5CC5)C[C@H]4/C=C\CC[C@H](C)C[C@@H](CC)[C@H](NC(=O)OC(C)(C)C)C(=O)N3C2)c2ccccc12` [Compound 5042, tert-butyl ((2R,6S,7R,9S,13aS,14aR,16aS,Z)-14a-((cyclopropylsulfonyl)carbamoyl)-2-((4-ethoxyphthalazin-1-yl)oxy)-7-ethyl-9-methyl-5,16-dioxo-1,2,3,5,6,7,8,9,10,11,13a,14,14a,15,16,16a-hexadecahydrocyclopropa[e]pyrrolo[1,2-a][1,4]diazacyclopentadecin-6-yl)carbamate], the EC50 in experiment [1] and in experiment [2] was 4.82 to 103 nM throughout.

Regarding `CCOc1nnc(O[C@@H]2C[C@H]3C(=O)N[C@]4(C(=O)NS(=O)(=O)C5CC5)C[C@H]4/C=C\CC[C@@H](C)C[C@@H](CC)[C@H](NC(=O)OC(C)(C)C)C(=O)N3C2)c2ccccc12` [Compound 5043, tert-butyl ((2R,6S,7R,9R,13aS,14aR,16aS,Z)-14a-((cyclopropylsulfonyl)carbamoyl)-2-((4-ethoxyphthalazin-1-yl)oxy)-7-ethyl-9-methyl-5,16-dioxo-1,2,3,5,6,7,8,9,10,11,13a,14,14a,15,16,16a-hexadecahydrocyclopropa[e]pyrrolo[1,2-a][1,4]diazacyclopentadecin-6-yl)carbamate], the EC50 in experiment [1] and in experiment [2] was below 5.46 nM throughout.
